# Data reported in patent US20070274916A1, “Method for Identifying Compounds that Affect Expression of Tryptophan Hydroxylase Isoform 2” (priority 2003, published 2007).
# What was measured:
# Assay type in all cases: in vivo, mouse
# TPH1 mRNA [1] = assay: TPH1 mRNA in murine DRN by in situ hybridization histochemistry (TPH1-892 antisense riboprobe); conditions: 0.2 mpk s.c. once daily for four days; ovariectomized mice; FIG. 5A
# TPH1 mRNA [2] = assay: TPH1 message levels in ER-β knockout mice
# Procedure: (§1) Female mice (13 to 16 wks of age) were ovariectomized (C57BL/6s from Charles River; ER Knockout animals from Taconic). Animals were fed a soy-free rodent chow and allowed a minimum of one week to recuperate from surgery and shipping. Mice were dosed subcutaneously in the morning (once daily for 4 days) with 0.1 cc of vehicle (sesame oil) or compound (3, 10, or 20 mpk dexamethasone, RU486, estradiol, or prednisolone as indicated). Approximately six hours following the fourth dose, mice were deeply anesthetized with ketamine/xylazine and brains were removed from the skull, placed ventral side up in a mouse brain block on ice, and ice-cold razor blades were inserted into the block at 1 mm intervals. The caudal extent of the hypothalamus was used as an anatomical marker for the placement of the first razor blade, and 4 blades were placed in sequential slots, caudally. The four sections were examined and the two that encompassed the greatest extent of the dorsal raphe were placed in a tube containing RNALATER (Ambion, Austin, Tex.) and placed at 4° C. overnight. Brain slices were removed from RNALATER after 24 hours and stored at −80° C. in fresh tubes.
# [3] = Uterine weight of ovariectomized female mice; conditions: FIG. 12
# TPH2 mRNA = TPH2 mRNA in murine DRN by in situ hybridization histochemistry; conditions: for reduction of TPH2 mRNA levels in DRN (densitometry): ovariectomized female mice, FIG. 13B
# TPH1 mRNA [4] = assay: TPH1 mRNA levels in murine raphe slice preparation by real-time RT-PCR
# Text: as §1, with “Mice were dosed subcutaneously in the morning (once daily for 4 days) with 0.1 cc of vehicle (sesame oil) or compound (3, 10, or 20 mpk dexamethasone, RU486, estradiol, or prednisolone as indicated).” left out
# Isolation of total RNA from mouse raphe slices for real-time PCR analysis using the TAQMAN ABI PRISMS 7700 Detection System, Applied Biosystems, Foster City, Calif. was as follows. Samples were stored in RNALATER at 4° C. overnight followed by removal of RNALATER and storage at −80° C. until isolation of the total RNA (2 slices weigh 25 to 50 mg). Slices were removed from −80° C. and placed in 1.0 mL TRIZOL Reagent in FASTPREP processing tubes. Slices were homogenized with one pass at setting 6 for 30 seconds in FASTPREP 120 homogenizer using LYSING MATRIX D tubes with bead matrix followed by 20 seconds at setting 6 after all samples had been processed. Samples were set at room temperature for 5 minutes to allow for complete dissociation of nucleoprotein complexes followed by centrifugation of the samples at 12,000×g for 5 minutes at 4° C. Homogenates were transferred to 1.5 mL; microcentrifuge tubes and 100 μL BCP (Bromo-3-chloropropane) was added. Samples were vortexed for 15 seconds and set at room temperature for 2 to 3 minutes. Samples were centrifuged at 12,000×g for 15 minutes at 4° C. The aqueous layer was removed and placed in a new RNAse-free sterile 1.5 mL microcentrifuge tube. Five μL of 5 mg/μL glycogen was added to each sample and the samples were vortexed. Five hundred μL of isopropanol was added to each sample. The samples were vortexed for 15 seconds, set at room temperature 10 minutes, followed by centrifugation at 12,000×g for 15 minutes at 4° C. Supernatants were decanted and pellets washed with 500 μL ice cold 75% ethanol. Samples were centrifuged at 12,000×g for 15 minutes at 4° C., ethanol decanted, and pellets air dried for 10 minutes. Pellets were resuspended in 30 μL prewarmed RNASECURE (60° C.), and heated at 60° C. for 10 min. Samples were stored at −80° C. until DNAse treatment and cDNA synthesis.
# DNase treatment and cDNA preparation with wt mouse raphe slice total RNA for TAQMAN analysis. DNase treatment using DNA-free kit (Ambion). Five μg of the total RNA sample was aliquotted to each well of a 96 well plate. An 1× DNase I solution was added to each sample (DNase I buffer, DNase I, H2O). Reactions were mixed and incubated at 37° C. for 30 minutes. Reactions were inactivated by addition of DNase inactivation reagent beads, mixed well at room temperature for 3 minutes and centrifuged at 2,500 RPM for 1 minutes at 4° C. (25 μL reactions were run and inactivated with 1/10 volume of inactivation reagent).
# Reverse Transcription. A 10 μL of the DNase I-treated total RNA was added to 40 μL of 1× reverse transcription reaction mix (DEPC treated H2O, RT buffer, MgCl2, dNTP mix, random hexamers, RNase inhibitor, and MULTISCRIBE RT) and incubated at 25° C. for 10 minutes, 48° C. for 30 minutes, and 95° C. for 5 minutes. Reverse transcription was halted by the addition of EDTA. Samples were transferred to a storage plate and stored at −20° C. […]
compound,measurement,setting,value
C[C@]12CC[C@@H]3c4ccc(O)cc4CC[C@H]3[C@@H]1CC[C@@H]2O [17β-estradiol],TPH1 mRNA induction in the DRN,TPH1 mRNA [1],3 fold
same,effect on TPH1 message levels,TPH1 mRNA [2],no effect
same,uterine weight measurements,[3],dramatically induced
same,effect on TPH2 mRNA in the DRN,"TPH2 mRNA; 0.2 mpk s.c. once daily for four days, ovariectomized mice, TPH2c riboprobe, FIG. 5B",no apparent effect
same,TPH1 mRNA induction in raphe slice,"TPH1 mRNA [4]; 0.2 mpk s.c. once daily for four days, ovariectomized mice, FIG. 6",1.8 fold
same,effect on TPH1 mRNA in the DRN,"TPH1 mRNA [4]; male and female mice, data not shown",induces
CC#C[C@]1(O)CC[C@H]2[C@@H]3CCC4=CC(=O)CCC4=C3[C@@H](c3ccc(N(C)C)cc3)C[C@@]21C [mifepristone],change of TPH1 mRNA levels in response to treatment,"TPH1 mRNA [4]; murine raphe slice preparations, dose not stated, FIG. 6",no detectable change
C[C@@H]1C[C@H]2[C@@H]3CCC4=CC(=O)C=C[C@]4(C)[C@@]3(F)[C@@H](O)C[C@]2(C)[C@@]1(O)C(=O)CO [dexamethasone],reduction of TPH2 mRNA levels in DRN (densitometry),TPH2 mRNA; 3 mg/kg s.c. once daily for four days,28%
same,reduction of TPH2 mRNA levels in DRN (densitometry),TPH2 mRNA; 10 mg/kg s.c. once daily for four days,36%
same,effect on TPH1 mRNA levels,"TPH1 mRNA [4]; 3 mpk s.c., ovariectomized mice, FIG. 6",no effect
